Molecular target: TintPBP4 (pheromone binding protein 4)
Test: fluorescence competitive binding assay, displacement of 1-NPN
Parameters: species or system Tryporyza intacta

Structure (SMILES)	Ki [nM]
CCCC/C=C/CCCCCCCCCC=O [compound 1, E11-16: Ald]	2970
CCCC/C=C\CCCCCCCCCC=O [compound 2, Z11-16: Ald]	2510

— PMC7096405, “Field evaluation of sex pheromones and binding specificity of pheromone binding protein 4 in Tryporyza intacta (Lepidoptera: Crambidae)” (Scientific Reports, 2020)
